{"source": "paper PMC8125507", "about": "“Molecular Mechanism of Thymidylate Synthase Inhibition by N^4-Hydroxy-dCMP in View of Spectrophotometric and Crystallographic Studies” (International Journal of Molecular Sciences, 2021)", "type_in_all_cases": "binding", "key": {"CeTS": {"biological_target": "T1, CeTS (Caenorhabditis elegans, UniProt Q9Y052)", "T1 construct": "recombinant, non-phosphorylated fraction; dimer; catalytic Cys197; residues 24-312 modelled", "T1 sequence (Q9Y052 entry or part of it)": "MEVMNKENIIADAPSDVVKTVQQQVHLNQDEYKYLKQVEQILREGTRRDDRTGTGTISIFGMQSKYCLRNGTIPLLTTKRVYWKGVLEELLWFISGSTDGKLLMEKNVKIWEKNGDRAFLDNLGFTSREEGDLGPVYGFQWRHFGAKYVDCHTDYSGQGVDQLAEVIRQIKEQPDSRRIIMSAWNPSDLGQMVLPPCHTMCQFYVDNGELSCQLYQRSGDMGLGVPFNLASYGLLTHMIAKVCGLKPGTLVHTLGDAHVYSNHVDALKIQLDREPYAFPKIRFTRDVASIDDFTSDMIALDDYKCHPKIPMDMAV", "assay": "X-ray crystal structure, soaked crystal, […] Å", "details": "apoenzyme crystal soaked with 36 mM ligand ca. 80 min, pH 5.6; no folate; active site of both subunits, non-covalent"}, "mTS": {"biological_target": "T2, mTS (Mus musculus, UniProt P07607)", "T2 construct": "gene Tyms; recombinant, non-phosphorylated fraction for crystals; dimer; catalytic Cys189; residues 21-307 modelled", "T2 sequence (P07607 whole entry, the tested form may be a part)": "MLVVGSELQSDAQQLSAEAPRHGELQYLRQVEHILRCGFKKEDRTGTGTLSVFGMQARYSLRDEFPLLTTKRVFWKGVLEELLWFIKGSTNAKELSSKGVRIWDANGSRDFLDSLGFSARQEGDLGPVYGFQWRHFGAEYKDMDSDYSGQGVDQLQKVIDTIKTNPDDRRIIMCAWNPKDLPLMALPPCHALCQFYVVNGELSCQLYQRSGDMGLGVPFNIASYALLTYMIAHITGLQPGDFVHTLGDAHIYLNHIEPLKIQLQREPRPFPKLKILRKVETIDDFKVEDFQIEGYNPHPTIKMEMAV", "assay": "X-ray crystal structure, co-crystal soaked with meTHF, […] Å", "details": "pH 6.7; folate derivative also bound; active site of both subunits, non-covalent"}, "TspTS": {"biological_target": "T3, TspTS (Trichinella spiralis, UniProt Q9NDD3)", "T3 construct": "gene ts; recombinant, non-phosphorylated fraction; dimer; catalytic Cys189; residues 18-307 modelled in part", "T3 sequence (Q9NDD3 entry or part of it)": "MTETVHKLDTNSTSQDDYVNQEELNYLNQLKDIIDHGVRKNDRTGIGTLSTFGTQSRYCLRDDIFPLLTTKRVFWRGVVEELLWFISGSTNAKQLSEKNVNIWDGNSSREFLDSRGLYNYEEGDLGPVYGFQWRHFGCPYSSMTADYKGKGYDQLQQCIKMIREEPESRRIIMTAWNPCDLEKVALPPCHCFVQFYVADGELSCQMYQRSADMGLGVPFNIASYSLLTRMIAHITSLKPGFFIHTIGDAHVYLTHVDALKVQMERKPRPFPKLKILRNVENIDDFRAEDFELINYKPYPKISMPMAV", "assay": "X-ray crystal structure, co-crystal, […] Å", "details": "co-crystallized with meTHF, pH 7.1; covalent to Cys189 Sγ via pyrimidine C(6); bound form reduced at C(5); no folate seen"}}}
{"smiles": "O=c1nc(NO)ccn1[C@H]1C[C@H](O)[C@@H](COP(=O)(O)O)O1", "note": "[N^4-OH-dCMP, N^4-hydroxy-2′-deoxycytidine 5′-monophosphate]", "values": [{"measurement": "X-ray crystal structure, soaked crystal, 2.8 Å", "setting": "CeTS", "result": "with N^4-OH-dCMP molecules in both active sites refined with full occupancy"}, {"measurement": "X-ray crystal structure, co-crystal soaked with meTHF, 2.13 Å", "setting": "mTS", "result": "N^4-OH-dCMP molecules are modeled with full occupancy"}, {"measurement": "X-ray crystal structure, co-crystal, 1.18 Å", "setting": "TspTS", "result": "a clear electron density was present, identified as the N^4-OH-dCMP molecule"}]}
